Data from patent publication US20230372542A1, “COMPOSITION AND METHODS FOR MODULATING TCF4 GENE EXPESSION AND TREATING PITT HOPKINS SYNDROME” (The Regents of the University of California, priority 2020, published 2023).

What was measured:
Type in all cases: cell-based, human
[1] = test system: CtOs or sPOs; assay: Wnt signaling manipulation in brain organoids (size, immunostaining, single cell RNA-Seq)
Method: Immunofluorescence staining. After being cultured in vitro for the required amount of time, CtOs and sPOs were fixed with 4% paraformaldehyde for 4-8 h at 4° C. and cryoprotected in 30% sucrose for 12 h. Organoids were then embedded in TissueTek (Leica Microsystems) and sectioned on a Leica VT1000S cryostat to produce 20 μm sections. For staining, slides were air dried for 10 min, permeabilized in […] for 2 min, and blocked with […] for 1 h at 25° C., followed by incubation with primary antibodies in the same solutions, for 16 h at 4° C. […] After further washes in 1×PBS, slides were counterstained with DAPI solution (1 μg/mL) for 45 min and mounted with ProLong Gold. All images were taken using a Zeiss fluorescence microscope equipped with Apotome (Axio Observer Apotome, Zeiss). For projections of z series stacked images of DCX-stained organoids, the maximum intensity feature of ZEN software (Zeiss) was used, after collecting 10 optical slices per section. For p16^INK4a staining, antigen retrieval was performed by incubating the slides at 60° C. for 10 min in 1× Universal HIER antigen retrieval reagent (Abcam; ab208572), followed by regular immunostaining. For counting SOX2+ cells after p16^INK4a co-staining (FIG. 15J), raw unprocessed images were used, and defined strongly stained cells as those which had average pixel intensity between the upper third quartile and the maximum pixel intensity in each image. Remaining SOX2+ cells were considered weakly stained.
For quantification of cell types in organoid sections, 4 random 100×100 μm regions of interest (ROI) were sampled across each imaged section. The mean number of labeled cells per sample was calculated by first averaging the number of labeled cells in each ROI to produce a mean value of labeled cells per section, and then averaging these mean values across all sections for each subject. […] The average percentage of pixels according to these rules was computed over four 100×100 μm ROIs per section and 6 sections per subject.
Organoid single cell RNA sequencing analysis. CtOs and sPOs were dissociated to produce a single cell suspension via a combination of mechanical dissociation with forceps and enzymatic digestion with Accutase for 10 min. For each library, a total of 15 organoids were dissociated and the resulting cells were pooled and subsequently filtered to isolate single cells for RNA sequencing analysis on the same day. Dissociated cells were pelleted (3 min, 100× g, 4° C.) and resuspended in 10 mL of Neurobasal medium. […] Single cell RNA-seq libraries were prepared using the Chromium Single Cell 3′ v3 Library kit (10× Genomics) according to the manufacturer's protocol. Approximately 20,000 cells were loaded per sample on the Chromium chip. All steps, including GEM (Gel beads in emulsion) preparation, reverse transcription, PCR amplification, and Illumina library construction were carried out on a T100 thermal cycler (Bio-Rad). cDNA extracted from GEMs was cleaned up using MyOne Silane Beads (Thermo Fisher Scientific), PCR-amplified for a total of 10 cycles, and then purified using SPRIselect Reagent Kit (B23317, Beckman Coulter). Next, the cDNA pool was enzymatically fragmented for each library and a double size selection was performed using the SPRIselect Reagent Kit. Finally, Illumina adapters were ligated to prepare libraries for sequencing, followed by another round of double size selection with the SPRIselect Reagent Kit. […] Illumina libraries were quantified using Qubit dsDNA HS Assay Kit (Thermo Fisher Scientific) and size quality control was performed on a High Sensitivity D1000 tapestation (Agilent).

[2] = test system: NPCs; assay: p16INK4a+ (senescent) cells in NPCs treated with CHIR99021; conditions: PTHS NPCs
Method: For immunofluorescence labeling of NPCs, these cells were seeded at a density of 50,000 cells per well of a LabTek II 8-well chambered slide. When cells reached 50% confluency, they were fixed and processed for immunostaining in the same manner as described for iPSC colonies, with the following primary antibodies: rabbit anti-TCF4 (Abcam; ab217668; 1:1000); and chicken anti-vimentin (VIM) (Abcam; ab22651; 1:2000). NPCs were also stained to detect senescence associated P-galactosidase (SA-P-gal), using the CellEvent™ Senescence Green Detection Kit (Thermo Fisher Scientific; C10850) after antigen retrieval as described above. The same method described above for counting weakly and strongly stained SOX2+ cells after p16^INK4a co-staining was applied to NPCs.
(§1) Wnt signaling manipulation. For manipulating the Wnt/β-catenin signaling pathway in NPCs, 200,000 cells were seeded on a 6-well plate, followed by treatment with specific agonist CHIR99021 (1 μM) for 4 days. Controls were treated with DMSO (CHIR diluent) at the same concentration and for the same duration. […] In all cases, treated cells were assayed to measure activity of the Wnt pathway via transfection with the TOP-Flash plasmids described herein. For all experiments, 3 biological replicates were used per subject line, and similar results were obtained in at least 3 independent experiments.

[3] = test system: NPCs; assay: RT-qPCR gene expression in NPCs after Wnt signaling manipulation
Method: Real time quantitative PCR. Total RNA was extracted using RNeasy Mini Plus kit (Qiagen), followed by DNase I treatment on the column, as per the manufacturer's recommendations. Two and a half micrograms of total RNA were reverse transcribed into cDNA using the Superscript III First-Strand Reverse Transcription System (Thermo Fisher Scientific). Real-time quantitative PCR (RT-qPCR) was performed using pre-validated FAM-MGB TaqMan probes (Thermo Fisher Scientific) and the TaqMan universal master mix II without UNG (Thermo Fisher Scientific) on a CFX Connect Real Time PCR detection system (Bio-Rad), with the following cycling parameters: 94° C. for 3 min, followed by 40 cycles of 94° C. for 30 s and 68° C. for 1 min. Amplification and denaturation curves for all probes were analyzed to verify amplification of just one amplicon. All RT-qPCR analyses were conducted using RNA extracted from at least 3 independent biological samples per subject/condition, and normalized to the following endogenous control genes (TBP, ACTB, and GAPDH). Relative expression was calculated using the traditional ΔΔCt method.
as §1, with “herein.” for “herein. For all experiments, 3 biological replicates were used per subject line, and similar results were obtained in at least 3 independent experiments.”

[4] = PTHS NPCs in 2D culture, CHIR (FIG. 16K)

Cc1c[nH]c(-c2cnc(NCCNc3ccc(C#N)cn3)nc2-c2ccc(Cl)cc2Cl)n1 [CHIR99021]
percentage of subpallial-type neural progenitors ([1]; CHIR99021-treated CtOs (FIG. 16H)): increased percentage | progenitor population (single cell RNA-Seq) ([1]; CHIR99021-treated PTHS CtOs and sPOs (FIGS. 16G-H)): increase in the progenitor population | neural rosettes ([1]; PTHS CtOs, CHIR99021): reappearance of conspicuous neural rosettes | NPC content (SOX2+ cells) ([1]; PTHS CtOs, CHIR99021 1 μM (FIG. 9K)): significant increase | organoid size ([1]; PTHS CtOs, CHIR99021 1 μM (FIG. 16F)): significant increase in organoid size | TCF4 levels in neural progenitors of the organoid's 3D structure ([1]; PTHS sPOs, CHIR (FIG. 16J)): do not exhibit an increase in TCF4 levels | expression of subpallial markers (GAD1, GAD2) ([1]; parent and PTHS CHIR99021-treated organoids (FIG. 16I)): higher | progenitor content ([1]; parent organoids, CHIR (FIG. 9K)): does not lead to an increase | organoid size ([1]; parent organoids, CHIR (FIG. 16F)): does not lead to an increase | percentage of p16INK4a senescent cells [2]: decreased the percentage | PCDH15 expression ([3]; NPCs, CHIR99021 (FIG. 16N)): further reduces its expression | expression of TCF4 [3, 4]: increased | expression of TCF4 downstream targets (GADD45G) [3, 4]: increased | expression of pro-proliferative gene HES1 ([3]; PTHS NPCs, CHIR99021 (FIG. 9J)): increased the expression | expression of proneural gene ASCL1 ([3]; PTHS NPCs, CHIR99021 (FIG. 9J)): increased the expression | expression of proneural gene NEUROD1 ([3]; PTHS NPCs, CHIR99021 (FIG. 9J)): increased the expression | SOX3 expression ([3]; PTHS progenitors, CHIR99021 (FIG. 10F)): increased SOX3 expression
